The source of these data is patent publication US11292776B2, “Small molecule inhibitors of fungal hyphae and biofilm formation” (University of Sharjah, priority 2019, dated 2022).

One data set deals with C. albicans yeast. The data set is described as follows: Antimicrobial activity / MIC against C. albicans growing in yeast-forming conditions. The data set is classed as cell-based, C. albicans SC5314. The following applies: for MIC: 24 h; for MIC / MIC C. albicans Yeast: MIC100, lowest concentration inhibiting 100% of growth, 24 hrs incubation; for IC50: Candida albicans, −log IC50 against C. albicans, training set of 3D QSAR, read-out: pIC50 Experimental (converted). Here is the method:
(§1) Collections of bacterial and fungal strains were obtained from the laboratory of Dr. Ibrahim at Harbor-UCLA medical center, Torrance, Calif. The bacterial strains used in this study were the Gram-negative bacterium Escherichia coli and the Gram-Positive bacterium methicillin-resistant Staphylococcus aureus (MRSA) LAC300. All bacterial strains were cultured on sterile Luria-Bertani medium (LB). The fungal strain used in this study was C. albicans SC5314. C. albicans was inoculated into sterile yeast potato dextrose broth (YPD) and incubated for 24 h at 37° C. (This was used as an initial culture for all studies described), and incubated in two different media, Yeast Nitrogen Base (YNB) broth or Roswell Park Memorial Institute medium (RPMI-1640). Polymyxin B (colistin), vancomycin and Ketoconazole were purchased from (Sigma-Aldrich).
(§2) The antimicrobial activity of compounds SR1-8 on agar plates, liquid broth media and MIC were measured according to modified Clinical and Laboratory Standards Institute (CLSI). Briefly, 0.1 mL containing 10^5 CFU/mL was spread on Luria-Bertani (LB) agar plates. The plates were then incubated at 37° C. for […] with filter discs (8 mm diameter) saturated with different dilutions of the compounds (1-400 μg/mL). The inhibition zones (mm) were measured by determining the diameter of the clear area. Similarly, the activity in liquid media was measured by incubating the aforementioned concentrations of the compounds into LB broth media inoculated with 10^5 CFU/mL in 96-well microplates at 37° C. for 24 h. The turbidity representing the microbial growth was measured by microplate reader (DYNEX technologies) at OD600. […] Each test was performed in triplicate. Ketoconazole, colistin and vancomycin were employed as positive controls against C. albicans, E. coli and S. aureus bacteria, respectively. Cultures without the compounds or antimicrobials were employed as negative control.

In data set [1] the test system is C. albicans hyphae / biofilm. Put plainly: Inhibition of Candida biofilm (hyphae) formation, microtiter plate MTT assay. The format is cell-based, C. albicans SC5314. The following applies: for MIC: MIC100 for biofilm (hyphal) formation, 24 hrs incubation, RPMI-1640, 37° C.; for inhibition at 10 µg/mL: 10 μg/mL, hyphae growth conditions. Here is the method:
as §1
The MICs for cells forming biofilm were determined by a microtiter plate assay. Briefly, a 96-well polystyrene microtiter plate was seeded with 200 μL of RPMI-1640 containing 10^6 C. albicans cells in the presence of the compound of interest at concentration range of 1-100 μg/mL. After 24 h of incubation at 37° C., the biofilms were washed and the fungal viability was analyzed using 3-(4,5-dimethylthiazol-2-yl)-2,5-diphenyl tetrazolium bromide (MTT) (Sigma) and the final absorbance was measured at 540 nm. The assay was performed in triplicate and repeated three times. The MIC of the compounds causing 100% inhibition of C. albicans biofilm formation was determined by measuring the metabolic activity of biofilm compared to solvent control.

The subject of a further data set is S. aureus. Put plainly: Antimicrobial activity / MIC against S. aureus. The data set is classed as cell-based, methicillin-resistant Staphylococcus aureus (MRSA) LAC300. The conditions noted are these: Staphylococcus aureus; MIC100; 24 hrs incubation; read-out: MIC Bacteria S. aureus. Here is the method: as §1, with “Polymyxin B (colistin), vancomycin and Ketoconazole were purchased from (Sigma-Aldrich).” left out
The antimicrobial activity of compounds SR1-8 on agar plates, liquid broth media and MIC were measured according to modified Clinical and Laboratory Standards Institute (CLSI). […] The inhibition zones (mm) were measured by determining the diameter of the clear area. Similarly, the activity in liquid media was measured by incubating the aforementioned concentrations of the compounds into LB broth media inoculated with 10^5 CFU/mL in 96-well microplates at 37° C. for 24 h. The turbidity representing the microbial growth was measured by microplate reader (DYNEX technologies) at OD600. […]

In another data set the test system is E. coli. The data set is described as follows: Antimicrobial activity / MIC against E. coli. The format is cell-based, Escherichia coli. The following applies: MIC100, 24 hrs incubation; for MIC: Escherichia coli, read-out: MIC Bacteria E. Coli. Here is the method: as §1, §2

Converted amounts (≈) assume the structure as drawn.

Protocol for human erythrocytes: DPBS-washed erythrocytes (3×10^6 cells per well) were incubated in 96-well plate with 200 μg/mL of SR compounds at 37° C. for 30 min. The hemoglobin released from lysed erythrocytes was measured using micro-plate reader at 405 nm. The absorbance value for each sample was subtracted from the absorbance value of cells treated only with washing buffer and the hemolytic activity (%) was calculated. The data display the mean±standard error (SEM) of three independent measurements.
The cytotoxic assay of SR compounds was measured by quantifying the amount of hemoglobin released by lysis of human erythrocytes as previously described. Briefly, fresh whole blood from healthy individual was collected by venipuncture and the blood was immediately centrifuged at 500 g for 10 min using benchtop centrifuge (Eppendorf 5804R Refrigerated Benchtop). […] The plate was incubated at 37° C. for 30 min, and the intact cells were precipitated by centrifugation at 500 g for 10 min at 4° C. and the supernatants (125 μL) were transferred to a flat-bottom 96-well plate to measure hemoglobin release by absorbance at 405 nm using a microplate reader. The absorbance values for each sample were subtracted from the absorbance value obtained for washing buffer-treated cells and the hemolytic activity (%) was calculated. […]

For the compound `CC(=O)N1CCN(c2ccc(OCC3COC(Cn4ccnc4)(c4ccc(Cl)cc4Cl)O3)cc2)CC1` (centres unmarked) [Ketoconazole, reference compound], the MIC in the data set on C. albicans yeast is 3 µg/mL (≈ 5.65 µM).
Broadly, the melting point is the temperature, or range, at which the solid turns liquid. As to `COc1cc(C=C2SC(=S)NC2=O)ccc1OCc1ccc(C)cc1` [SR1, 5-[3-Methoxy-4-(4-methyl-benzyloxy)-benzylidene]-2-thioxo-thiazolidin-4-one], the melting point fell in the range of 205 to 207 °C. The MIC in data set [1] was 20 ± 5 µg/mL (≈ 53.8 µM). The MIC with S. aureus is over 400 µg/mL. For the same compound, in the data set on C. albicans yeast, the MIC is 400 µg/mL (≈ 1080 µM), the IC50 is 1080 µM and the “MIC C. albicans Yeast” value was over 400 ± 15 µg/mL. For the same compound, the MIC in the data set with E. coli is 100 ± 10 µg/mL (≈ 269 µM).
`Cc1ccc(COc2ccc(C=C3SC(=S)NC3=O)cc2Br)cc1` [SR2, 5-[3-Bromo-4-(4-methyl-benzyloxy)-benzylidene]-2-thioxo-thiazolidin-4-one] returned a melting point of 217 to 219 °C. The MIC in data set [1] came to 10 ± 2 µg/mL (≈ 23.8 µM). Besides, in the data set on C. albicans yeast, the MIC is 200 µg/mL (≈ 476 µM), the IC50 was 475 µM and the “MIC C. albicans Yeast” value was 200 ± 15 µg/mL (≈ 476 µM). Besides, the MIC in the data set with E. coli worked out at 100 ± 10 µg/mL (≈ 238 µM).
On to `Cc1ccc(COc2ccc(C=C3SC(=S)NC3=O)cc2Cl)cc1` [SR3, 5-[3-Chloro-4-(4-methyl-benzyloxy)-benzylidene]-2-thioxo-thiazolidin-4-one], for which the melting point fell in the range of 225 to 227 °C. Also, the MIC in data set [1] amounted to 20 ± 5 µg/mL (≈ 53.2 µM). In addition, in the data set on C. albicans yeast, the MIC came out at 400 µg/mL (≈ 1060 µM), the IC50 is 1060 µM and the “MIC C. albicans Yeast” value was over 400 ± 10 µg/mL. For the same compound, the MIC in the data set on E. coli was 400 ± 10 µg/mL (≈ 1060 µM).
The term inhibition denotes the change of the read-out against control, counted positive when it falls. `COc1cc(C=C2SC(=S)NC2=O)ccc1OCc1ccc(C(F)(F)F)cc1` [SR4, 5-[3-Methoxy-4-(4-trifluoromethyl-benzyloxy)-benzylidene]-2-thioxo-thiazolidin-4-one] yielded a melting point of 209 to 211 °C. In data set [1], this compound came in with an inhibition at 10 µg/mL of 50% and an MIC of 20 ± 5 µg/mL (≈ 47 µM). In addition, in the data set on C. albicans yeast, the MIC was 200 µg/mL (≈ 470 µM), the IC50 was 456 µM and the “MIC C. albicans Yeast” value was determined as 200 ± 10 µg/mL (≈ 470 µM). Moreover, in the data set with E. coli, the MIC is 100 ± 10 µg/mL (≈ 235 µM).
As for `O=C1NC(=S)SC1=Cc1ccc(OCc2ccc(C(F)(F)F)cc2)c(Br)c1` [SR5, 5-[3-Bromo-4-(4-trifluoromethyl-benzyloxy)-benzylidene]-2-thioxo-thiazolidin-4-one], the melting point lay in the range of 210 to 212 °C. In addition, in data set [1], the MIC was determined as 20 ± 3 µg/mL (≈ 42.2 µM). In the data set on C. albicans yeast, the MIC is 200 µg/mL (≈ 422 µM), the IC50 is 470 µM and the “MIC C. albicans Yeast” value worked out at 200 ± 15 µg/mL (≈ 422 µM). In the data set on E. coli, the MIC turned out to be 400 ± 20 µg/mL (≈ 843 µM).
Compound `O=C1NC(=S)SC1=Cc1ccc(OCc2cccc(C(F)(F)F)c2)c(Br)c1` [SR6, 5-[3-Bromo-4-(3-trifluoromethyl-benzyloxy)-benzylidene]-2-thioxo-thiazolidin-4-one] showed a melting point of 235 to 237 °C. In data set [1], the inhibition at 10 µg/mL amounted to 50% and the MIC came to 10 ± 5 µg/mL (≈ 21.1 µM). For the same compound, in the data set on C. albicans yeast, the MIC was found to be 125 µg/mL (≈ 264 µM), the IC50 was 264 µM and the “MIC C. albicans Yeast” value was 125 ± 10 µg/mL (≈ 264 µM). The MIC with E. coli stood at 400 ± 10 µg/mL (≈ 843 µM).
In turn, `COc1cc(C=C2SC(=S)NC2=O)ccc1OCc1cccc(C(F)(F)F)c1` [SR7, 5-[3-Methoxy-4-(3-trifluoromethyl-benzyloxy)-benzylidene]-2-thioxo-thiazolidin-4-one] had a melting point of 199 to 201 °C. In data set [1], this compound registered an inhibition at 10 µg/mL of 90% and an MIC of 10 ± 3 µg/mL (≈ 23.5 µM). Moreover, in the data set with C. albicans yeast, the MIC was 125 µg/mL (≈ 294 µM), the IC50 is 264 µM and the “MIC C. albicans Yeast” value came to 125 ± 10 µg/mL (≈ 294 µM). The MIC in the data set with E. coli was found to be 100 ± 5 µg/mL (≈ 235 µM).
Regarding `O=C1NC(=S)SC1=Cc1ccc(OCc2cccc(C(F)(F)F)c2)c(Cl)c1` [SR8, 5-[3-Chloro-4-(3-trifluoromethyl-benzyloxy)-benzylidene]-2-thioxo-thiazolidin-4-one], the melting point lay in the range of 224 to 226 °C. Also, in data set [1], the inhibition at 10 µg/mL was found to be 50% and the MIC is 20 ± 5 µg/mL (≈ 46.5 µM). Also, in the data set with C. albicans yeast, the MIC worked out at 125 µg/mL (≈ 291 µM), the IC50 is 294 µM and the “MIC C. albicans Yeast” value came to 125 ± 10 µg/mL (≈ 291 µM). The MIC in the data set on E. coli worked out at 100 ± 10 µg/mL (≈ 233 µM).
With Colistin [reference compound], the “MIC Bacteria E. Coli” value with E. coli was found to be 5 µg/mL.
Triton X-100: the “erythrocyte hemolysis (positive control)” value in the data set with human erythrocytes stood at 100%.
